Data as given in patent publication US5030427A, “Gallium purification” (Monsanto Company, priority 1988, dated 1991).

Experiment: Aqueous solubilities of N-alkylalkano and N-H hydroxamic acids (25° C.)
Type: physicochemical
Text: It is desirable that the extractant for metals have low solubility in water in order to avoid loss of extractant in aqueous media. In Table 1, the aqueous solubilities of a number of hydroxamic acids are reported.

| SOLUBILITY (25° C.) (aqueous, 25° C.) | aqueous solubility (in words) (aqueous media) | SMILES |
| --- | --- | --- |
| 5.48 × 10^-4 molarity |  | CCCCCCCCCC(=O)N(C)O [N-methyldecanohydroxamic acid] |
|  | relatively high aqueous solubility | CCCCCCCCC(=O)N(C)O [N-methylnonanohydroxamic acid] |
